One data set deals with HUVECs. Kind of data set: Capillary-like tube formation assay (tubulogenesis). In kind it is cell-based, human. A digest of the protocol: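 HUVECs seeded on Matrigel (regular or reduced growth factor) in incomplete ECM basal medium, treated with compound for 6 h; VEGF 50 ng/mL positive and sunitinib 50 nM negative controls. Calcein-AM-stained tubules imaged at 10× and tubule length expressed as % of 0.1% DMSO vehicle.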

The subject of a further data set is Balb/c mice. Kind of data set: Ear angiogenesis assay. It is filed as in vivo. The conditions noted are these: 750 nM along with VEGF and bFGF. As for the experimental part:
(A) Control (0.1% DMSO), (B) sunitinib and (C) Compound 1 at their indicated concentration dissolved in 100 μL of 1×PBS injected into the […] of Balb/c mice (5 mice/treatment group). After 7 days of treatment ears were harvested, cryo-sectioned at […] thickness. CD31 immunostained and photographed under inverted microscope at 20× magnification. (B) Vasculature was quantified by counting total macro and micro blood vessels. Plotted graph is representative of four independent experiments and are represented as mean±SEM with significant difference compared with control at *p<0.05.
Sterile 1×PBS having mouse VEGF (50 ng/mL), bFGF (50 ng/mL), Heparin (10 mg/mL) and sunitinib (2 μM) as a positive control along with compound 1 (750 nM) as a test compound were injected subcutaneously into the ear of 8- to 12-week old male Balb/c mice. Equal volume of 1×PBS with all components except drug was used as a control and was injected in contra lateral ear. After 6 days, mice were sacrificed and the ears were excised and embedded in OCT for cryo-sectioning. Frozen sections of […] sizes were immunostained with endothelial cell markers anti CD31 and anti PECAM 1 antibody. This was quantified by total number of blood vessels count.

A further data set relates to phospho-VEGFR2. Nature of the data set: Immunoblotting of treated HUVECs, phospho-VEGFR2. The conditions noted are these: 250 nM, 6 h. In kind it is cell-based, human. As for the experimental part:
(A) Serum-starved HUVECs were treated with control (0.1% DMSO), sunitinib and Compound 1 at a given concentrations and then incubated for 6 h. The expression level of phospho-VEGFR2 and GAPDH (housekeeping protein) was analyzed by immunoblotting. (B) Blots were quantified with Image-J software and the bar graphs represent the relative density of phospho-VEGFR2 normalized with GAPDH and the data are represented as mean±SEM with significant difference compared with control at *p<0.05. (D) Protein angiogenesis array showing up-regulation of anti-angiogenic protein and down-regulation of pro-angiogenic proteins on endothelial cell treated with Compound 1 at 260 nM.
Whole cell lysates of endothelial cells at 6 h of treatment with Compound 1 (250 nM) and sunitinib (50 nM) were prepared using the RIPA-lysis buffer. Proteins were fractionated and resolved on 8% SDS-PAGE gels and transferred onto PVDF membranes (Millipore). After incubation in blocking buffer (5% BSA in 1×TBST) for 1 h the membranes were incubated with primary antibodies specific for p-Akt and p-Src. GAPDH was used as housekeeping and loading control. The blots were then incubated with specific HRP-conjugated secondary antibodies and bands were visualized using ECL (Millipore) on Image Quant (LAS4010) chemiluminescence detection system. The band intensities were quantified using My Image Analysis software.
For orientation: A western blot detects proteins with antibodies after separation by electrophoresis.

One compound from patent US20230234920A1, “Azirine Containing Compounds as Anti-Angiogenesis Agents and a Process for the Preparation Thereof” (COUNCIL OF SCIENTIFIC & INDUSTRIAL RESEARCH, priority 2020, published 2023) can be followed below.

SMILES strings stand for the structures.

With `CCOC(=O)C1N=C1CCc1ccc(OC)cc1` (racemic) [Compound 1, Ethyl 3-(4-methoxyphenethyl)-2H-azirine-2-carboxylate], the “anti-angiogenic activity on primary tubulogenesis screening” value with HUVECs is given as 75 nM. In addition, the tubule formation result in the data set on HUVECs (25 nM, 6 h) was “complete angiogenesis”; with HUVECs (100 nM combined with sunitinib at 20 nM, 6 h) it was “approximately 15%”; in the data set on HUVECs (250 nM till 125 nM, 6 h) it was “light increase in the tubule formation”. Also, the “tubule formation as compared to control” value with HUVECs (75 nM, 6 h) was found to be 50%. In addition, in the data set with HUVECs (10 μM till 500 nM, 6 h), the tubulogenesis inhibition result is given as “complete tubulogenesis inhibition”. Also, in the data set on HUVECs (Homo sapiens, HUVEC, endothelial tubule network assay, anti-angiogenic activity, read-out: IC50 value), the IC50 amounted to 75 nM. Further, the remarks result in the data set with HUVECs (remark on IC50 versus sunitinib) is reported as “comparable to sunitinib”. Moreover, in the data set with HUVECs (till 500 nM, 6 h), the “toxic effect on the cells” value was “no toxic effect”. Further, in the data set on Balb/c mice, the “CD31 expression and micro-vessels density” value was “reduced CD31 expression and micro-vessels density”. For the same compound, in the data set on phospho-VEGFR2, the p-VEGFR2 expression result is on record as “marked reduction”.

For orientation: IC50 means the concentration needed to halve the response being measured.
